One may read the EC50 as the midpoint of the concentration-response curve.

This is an account of results in US20120016155A1, “DIASTEREOISOMERS OF HYPOPHOSPHOROUS ACID DERIVATIVES” (priority 2009, published 2012).

Counter-ions that a name gives are not always drawn. Like-named read-outs stand apart in the source and are kept apart here. Bounds are passed on as bounds.

What all share (assay type): cell-based
The target in one experiment is mGlu8 (Homo sapiens, UniProt O00222). Nature of the experiment: Activities on metabotropic glutamate receptor 8 (EC50; readout marked IP or by a symbol). An excerpt:
(§1) Activities on Metabotropic Glutamate Receptors 4, 8, 6 and 7.
(§2) Nitrobenzyl PCEP Derivatives

In another experiment the target is mGlu6 (Homo sapiens, UniProt O15303). The experiment in a line: Activities on metabotropic glutamate receptor 6 (EC50; readout marked IP or by a symbol). The following applies: mean ± spread (n), read-out: mG1u6 EC50 μM (n) (converted).
Text: as §1, §2

Another experiment has as its target mGlu7 (Homo sapiens, UniProt Q14831). The experiment in a line: Activities on metabotropic glutamate receptor 7 (EC50; readout marked IP or by a symbol). The following applies: mean ± spread (n), read-out: mG1u7 EC50 μM (n) (converted).
Text: as §1, §2

Another experiment addresses mGlu4 (Homo sapiens, UniProt Q14833). Nature of the experiment: Activities on metabotropic glutamate receptor 4 (EC50; readout marked IP or by a symbol). The following applies: for mGlu8/4 EC50 ratio: ratio of mGlu8 EC50 to mGlu4 EC50, one per pair of values (readout/batch).
Text: as §1, §2

The mark [1] stands for this setting: values marked IP, mean ± spread (n).
The mark [2] stands for this setting: values marked with an image symbol (second readout, not IP).
[3] abbreviates: values marked with an image symbol (second readout, not IP), mean ± spread (n).

mGlu7, sequence (Q14831 35-915): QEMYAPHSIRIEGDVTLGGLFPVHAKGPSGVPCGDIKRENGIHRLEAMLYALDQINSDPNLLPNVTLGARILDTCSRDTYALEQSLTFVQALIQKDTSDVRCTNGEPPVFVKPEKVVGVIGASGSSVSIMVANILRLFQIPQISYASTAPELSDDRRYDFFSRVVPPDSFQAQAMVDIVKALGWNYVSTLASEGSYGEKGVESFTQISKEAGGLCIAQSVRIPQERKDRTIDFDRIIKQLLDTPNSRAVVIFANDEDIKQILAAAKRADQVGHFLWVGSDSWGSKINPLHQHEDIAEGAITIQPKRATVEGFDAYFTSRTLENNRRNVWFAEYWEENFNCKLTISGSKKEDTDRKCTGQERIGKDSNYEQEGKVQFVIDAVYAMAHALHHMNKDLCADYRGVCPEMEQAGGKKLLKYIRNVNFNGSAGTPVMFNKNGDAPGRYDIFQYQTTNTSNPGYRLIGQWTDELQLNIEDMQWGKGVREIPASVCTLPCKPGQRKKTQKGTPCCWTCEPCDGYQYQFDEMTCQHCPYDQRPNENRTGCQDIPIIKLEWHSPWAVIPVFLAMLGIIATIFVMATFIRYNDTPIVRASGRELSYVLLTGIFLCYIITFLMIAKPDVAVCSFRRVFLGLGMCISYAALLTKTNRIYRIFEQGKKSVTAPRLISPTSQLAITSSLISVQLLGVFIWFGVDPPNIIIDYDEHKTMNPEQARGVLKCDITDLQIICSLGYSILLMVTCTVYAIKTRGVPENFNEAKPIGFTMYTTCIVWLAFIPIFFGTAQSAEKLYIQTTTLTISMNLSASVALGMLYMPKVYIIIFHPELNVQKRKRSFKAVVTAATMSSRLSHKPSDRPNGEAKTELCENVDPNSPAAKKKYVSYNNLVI
mGlu4, sequence (Q14833 33-912): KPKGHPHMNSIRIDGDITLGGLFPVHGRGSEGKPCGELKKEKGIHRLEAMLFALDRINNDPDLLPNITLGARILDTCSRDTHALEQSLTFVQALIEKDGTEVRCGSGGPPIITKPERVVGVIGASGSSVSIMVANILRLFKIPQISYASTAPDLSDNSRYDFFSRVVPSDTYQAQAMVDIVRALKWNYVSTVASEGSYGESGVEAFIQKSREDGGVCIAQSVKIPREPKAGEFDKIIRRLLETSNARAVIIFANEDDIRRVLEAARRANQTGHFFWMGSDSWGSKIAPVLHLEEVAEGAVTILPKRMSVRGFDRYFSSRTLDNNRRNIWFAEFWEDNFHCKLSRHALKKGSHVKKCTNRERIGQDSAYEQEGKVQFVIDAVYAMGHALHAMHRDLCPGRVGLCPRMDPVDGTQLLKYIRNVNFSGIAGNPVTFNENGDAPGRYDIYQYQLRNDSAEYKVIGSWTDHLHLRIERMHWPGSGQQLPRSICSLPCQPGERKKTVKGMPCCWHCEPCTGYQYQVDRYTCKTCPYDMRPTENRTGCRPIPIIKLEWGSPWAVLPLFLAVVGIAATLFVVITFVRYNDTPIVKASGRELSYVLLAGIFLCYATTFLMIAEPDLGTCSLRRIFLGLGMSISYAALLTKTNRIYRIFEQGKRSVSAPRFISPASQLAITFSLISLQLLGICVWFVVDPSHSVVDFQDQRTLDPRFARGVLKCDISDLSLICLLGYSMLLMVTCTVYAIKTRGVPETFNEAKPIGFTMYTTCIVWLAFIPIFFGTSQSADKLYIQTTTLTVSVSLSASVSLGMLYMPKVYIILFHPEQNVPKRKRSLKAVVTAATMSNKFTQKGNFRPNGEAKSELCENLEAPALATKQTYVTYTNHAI
mGlu6, sequence (O15303 25-877): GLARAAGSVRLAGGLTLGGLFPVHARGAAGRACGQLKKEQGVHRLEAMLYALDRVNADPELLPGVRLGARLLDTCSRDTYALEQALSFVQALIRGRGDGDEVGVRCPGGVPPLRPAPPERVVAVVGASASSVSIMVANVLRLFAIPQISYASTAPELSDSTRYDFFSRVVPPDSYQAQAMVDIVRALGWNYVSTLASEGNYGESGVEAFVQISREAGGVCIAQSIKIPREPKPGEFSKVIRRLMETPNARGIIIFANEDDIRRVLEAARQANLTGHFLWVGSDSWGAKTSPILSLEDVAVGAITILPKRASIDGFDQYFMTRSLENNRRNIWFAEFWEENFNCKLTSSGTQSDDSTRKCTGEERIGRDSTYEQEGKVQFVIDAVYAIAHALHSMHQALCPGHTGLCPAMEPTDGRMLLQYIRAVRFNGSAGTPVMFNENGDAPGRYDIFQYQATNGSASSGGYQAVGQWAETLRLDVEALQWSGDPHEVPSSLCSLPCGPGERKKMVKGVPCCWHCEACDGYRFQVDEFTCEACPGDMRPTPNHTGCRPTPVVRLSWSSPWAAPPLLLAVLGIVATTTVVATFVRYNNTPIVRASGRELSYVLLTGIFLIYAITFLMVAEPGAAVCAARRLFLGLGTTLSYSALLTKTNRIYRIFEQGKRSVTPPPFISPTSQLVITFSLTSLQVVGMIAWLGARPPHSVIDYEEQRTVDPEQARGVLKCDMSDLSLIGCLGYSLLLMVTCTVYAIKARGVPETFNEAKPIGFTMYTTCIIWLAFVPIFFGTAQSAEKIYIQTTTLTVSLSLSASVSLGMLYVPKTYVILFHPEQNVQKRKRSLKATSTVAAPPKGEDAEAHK
mGlu8, sequence (O00222 34-908): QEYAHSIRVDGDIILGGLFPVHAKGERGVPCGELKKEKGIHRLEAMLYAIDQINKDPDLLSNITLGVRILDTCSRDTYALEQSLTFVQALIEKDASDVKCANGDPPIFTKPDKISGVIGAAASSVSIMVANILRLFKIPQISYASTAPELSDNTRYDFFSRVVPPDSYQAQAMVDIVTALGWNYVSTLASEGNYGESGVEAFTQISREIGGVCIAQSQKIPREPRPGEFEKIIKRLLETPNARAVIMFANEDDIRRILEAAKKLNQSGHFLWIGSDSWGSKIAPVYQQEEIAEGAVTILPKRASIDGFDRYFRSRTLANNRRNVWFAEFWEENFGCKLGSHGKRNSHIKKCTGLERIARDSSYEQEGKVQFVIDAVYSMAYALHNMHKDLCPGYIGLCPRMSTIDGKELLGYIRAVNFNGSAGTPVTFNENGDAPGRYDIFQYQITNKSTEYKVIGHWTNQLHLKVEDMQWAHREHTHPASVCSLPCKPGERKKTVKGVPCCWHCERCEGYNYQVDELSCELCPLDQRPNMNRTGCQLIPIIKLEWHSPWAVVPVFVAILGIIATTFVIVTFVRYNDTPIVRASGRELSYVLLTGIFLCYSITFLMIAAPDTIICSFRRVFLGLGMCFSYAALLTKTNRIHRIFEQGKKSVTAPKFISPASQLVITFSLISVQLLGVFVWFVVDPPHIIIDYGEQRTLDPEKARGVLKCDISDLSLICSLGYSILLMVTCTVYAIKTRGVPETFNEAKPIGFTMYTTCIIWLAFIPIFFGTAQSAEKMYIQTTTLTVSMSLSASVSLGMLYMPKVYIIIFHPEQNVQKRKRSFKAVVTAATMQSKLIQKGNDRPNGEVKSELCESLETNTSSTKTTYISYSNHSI

Take `N[C@@H](CCP(=O)(O)C(O)c1cccc([N+](=O)[O-])c1)C(=O)O` (mixture of isomers) [LSP1-2093, (3S)-3-[(((3-ammonium-3-carboxy)propyl)(hydroxy)phosphinyl)-hydroxymethyl]3-nitrobenzene]: the results for the EC50 on mGlu8 (setting [1]), at mGlu6 (values marked IP) and on mGlu7 (values marked IP) were 1.5 ± 0.5 µM, 8.8 ± 0.7 µM and > 1000 µM, respectively.
Regarding `COc1cc(C(O)P(=O)(O)CC[C@H](N)C(=O)O)cc([N+](=O)[O-])c1O` (mixture of isomers) [LSP1-2111, (3S)-3-[(((3-ammonium-3-carboxy)propyl)(hydroxy)phosphinyl)-hydroxymethyl]4-hydroxy-5-methoxy-3-nitrobenzene], the EC50 at mGlu4 (value printed without readout mark, read-out: mGlu4 EC50 μM (n) (converted)) is 1.5 µM; on mGlu4 (setting [1]) it was 2.2 ± 0.3 µM; on mGlu8 (value printed without readout mark, read-out: mGlu8 EC50 μM (n) (converted)) it was 113 µM; at mGlu8 (setting [1]), 66 ± 12 µM; on mGlu6 (values marked IP), 1.7 ± 0.1 µM; at mGlu6 (setting [2]), 3.18 µM. Moreover, the EC50 was 53 ± 20 µM on mGlu7 (values marked IP) and 101 µM on mGlu7 (setting [2]).
`CCOc1cc(C(O)P(=O)(O)CC[C@H](N)C(=O)O)cc([N+](=O)[O-])c1O` (mixture of isomers) [LSP3-1145, (3S)-3-[(((3-ammonium-3-carboxy)propyl)(hydroxy)phosphinyl)-hydroxymethyl]4-hydroxy-5-ethoxy-3-nitrobenzene]: the “mGlu8/4 EC50 ratio” value at mGlu4 is 3.1. For the same compound, the EC50 came out at 8.5 ± 1.1 µM on mGlu4 (setting [3]) and 27 ± 20 µM on mGlu8 (setting [3]).
Consider `COc1ccc(C(O)P(=O)(O)CC[C@H](N)C(=O)O)cc1[N+](=O)[O-]` (single isomer, unassigned) [LSP2-6146-I, hydrochloride], for which, on mGlu4 (hydrochloride), the “mGlu8/4 EC50 ratio” value is 1.2. For the same compound, the EC50 stood at 2 ± 0.4 µM at mGlu4 (setting [3]) and 2.5 ± 0.8 µM at mGlu8 (setting [3]).
Turning to `COc1ccc(C(O)P(=O)(O)CC[C@H](N)C(=O)O)cc1[N+](=O)[O-]` (single isomer, unassigned) [LSP2-6146-II, hydrochloride], the “mGlu8/4 EC50 ratio” value at mGlu4 is 1.3. In addition, the EC50 on mGlu4 (setting [3]) is 1.7 ± 0.6 µM; at mGlu8 (setting [3]), 2.2 ± 0.6 µM.
In the case of `NC(CCP(=O)(O)C(O)c1cccc([N+](=O)[O-])c1)C(=O)O` (single isomer, unassigned) [LSP3-1098-I, hydrochloride], the EC50 is 1 ± 0.4 µM at mGlu4 (setting [3]) and 1.25 ± 0.3 µM at mGlu8 (setting [3]).
The matching figures for `NC(CCP(=O)(O)C(O)c1cccc([N+](=O)[O-])c1)C(=O)O` (single isomer, unassigned) [LSP3-1098-II, hydrochloride]: 0.9 ± 0.4 µM and 1.3 ± 0.5 µM.
Consider `COc1cc(C(O)P(=O)(O)CC[C@H](N)C(=O)O)cc([N+](=O)[O-])c1O` (single isomer, unassigned) [LSP3-1101-I, hydrochloride], for which the “mGlu8/4 EC50 ratio” value on mGlu4 (hydrochloride) is 31. The EC50 was 0.74 ± 0.09 µM at mGlu4 (setting [3]), 23 ± 6 µM at mGlu8 (setting [3]), 1.11 ± 0.41 µM at mGlu6 (setting [2]) and 63 ± 35 µM on mGlu7 (setting [2]).
With `COc1cc(C(O)P(=O)(O)CC[C@H](N)C(=O)O)cc([N+](=O)[O-])c1O` (single isomer, unassigned) [LSP3-1101-II, hydrochloride], the “mGlu8/4 EC50 ratio” value on mGlu4 is listed as 5.9. Further, the EC50 is 4.7 ± 0.4 µM at mGlu4 (setting [3]), 27 ± 14 µM on mGlu8 (setting [3]), 2.36 ± 0.77 µM at mGlu6 (setting [2]) and 100 ± 49 µM on mGlu7 (setting [2]).
Regarding `CCOc1cc(C(O)P(=O)(O)CC[C@H](N)C(=O)O)cc([N+](=O)[O-])c1O` (single isomer, unassigned) [LSP3-1143-I, hydrochloride], the “mGlu8/4 EC50 ratio” value at mGlu4 (hydrochloride) was 6.5. For the same compound, the EC50 is 5.1 ± 1.2 µM at mGlu4 (setting [3]) and 33 ± 31 µM at mGlu8 (setting [3]).
`CCOc1cc(C(O)P(=O)(O)CC[C@H](N)C(=O)O)cc([N+](=O)[O-])c1O` (single isomer, unassigned) [LSP3-1143-II, hydrochloride]: on mGlu4, the “mGlu8/4 EC50 ratio” value is 1.4. Moreover, the concentration giving a half-maximal response (EC50) at mGlu4 (setting [3]) was determined as 6.4 ± 2.4 µM; at mGlu8 (setting [3]) it was 9.2 ± 2.6 µM.
Regarding `N[C@@H](CCP(=O)(O)C(O)c1ccc(O)c([N+](=O)[O-])c1)C(=O)O` (single isomer, unassigned) [LSP3-2074-I, hydrochloride], the “mGlu8/4 EC50 ratio” value on mGlu4 (hydrochloride) is reported as 63. The EC50 on mGlu4 (setting [3]) is 0.5 ± 0.07 µM; on mGlu8 (setting [3]), 31.5 ± 8.6 µM; at mGlu6 (setting [2]), 3.9 ± 1.7 µM; on mGlu7 (setting [2]), 62 ± 26 µM.
Regarding `Cl.N[C@@H](CCP(=O)(O)C(O)c1ccc(O)c([N+](=O)[O-])c1)C(=O)O` (single isomer, unassigned) [LSP3-2074-II, hydrochloride], the EC50 is 4.5 ± 0.2 µM at mGlu4 (setting [3]), 39.8 ± 6.5 µM on mGlu8 (setting [3]), 68.4 ± 14.5 µM on mGlu6 (setting [2]) and 295 ± 178 µM at mGlu7 (setting [2]).
As for `Cl.N[C@@H](CCP(=O)(O)C(O)c1ccc(O)c([N+](=O)[O-])c1)C(=O)O` (single isomer, unassigned) [LSP3-2074-II], at mGlu4, the “mGlu8/4 EC50 ratio” value turned out to be 8.5.
As for `N[C@@H](CCP(=O)(O)C(O)c1cccc(OCC(=O)O)c1)C(=O)O` (single isomer, unassigned) [LSP3-3108-II], at mGlu4, the “mGlu8/4 EC50 ratio” value was determined as 2.3. The EC50 came out at 13 ± 2.9 µM on mGlu4 (setting [3]) and 29.3 ± 7.2 µM at mGlu8 (setting [3]).
The matching figures for `N[C@@H](CCP(=O)(O)C(O)c1cccc(OCC(=O)O)c1)C(=O)O` (single isomer, unassigned) [LSP3-3108-I]: 7.4, 4.9 ± 1 µM and 36 ± 18 µM.
As for `COc1ccc(C(O)P(=O)(O)CC[C@H](N)C(=O)O)cc1[N+](=O)[O-]` (stereo partly drawn) [LSP1-2101, (3S)-3-[(((3-amino-3-carboxy)propyl) (hydroxy)phosphinyl)-hydroxymethyl]-4-methoxy-3-nitrobenzene], the EC50 is 0.5 ± 0.09 µM on mGlu4 (setting [1]), 4.2 µM at mGlu4 (setting [3]), 0.85 ± 0.07 µM on mGlu8 (setting [1]) and 4.4 µM at mGlu8 (setting [3]).
Turning to `N[C@@H](CCP(=O)(O)C(O)c1ccc(O)c([N+](=O)[O-])c1)C(=O)O` (stereo partly drawn) [LSP1-2109, (3S)-3-[(((3-amino-3-carboxy)propyl) (hydroxy)phosphinyl)-hydroxymethyl]-4-hydroxy-3-nitrobenzene], the EC50 was 6 ± 0.9 µM on mGlu6 (values marked IP), 6.3 µM on mGlu6 (setting [2]), 69 ± 8 µM on mGlu7 (values marked IP) and 125 µM on mGlu7 (setting [2]).
For the compound `NC(c1cccc([N+](=O)[O-])c1)P(=O)(O)CC[C@H](N)C(=O)O` (stereo partly drawn) [LSP1-3131, (2S)-amino-4-[[amino(3-nitrophenyl)methyl](hydroxy)phosphinyl]butanoic acid], at mGlu4, the “mGlu8/4 EC50 ratio” value came to 4.1. Further, the EC50 at mGlu4 (setting [1]) was determined as 0.54 ± 0.14 µM; at mGlu8 (setting [1]), 2.2 ± 0.9 µM.
Regarding `N[C@@H](CCP(=O)(O)Cc1cccc([N+](=O)[O-])c1)C(=O)O` [LSP3-1045, (3S)-3-[(((3-ammonium-3-carboxy)propyl) (hydroxy)phosphinyl)-methyl]3-nitrobenzene], the EC50 on mGlu4 (setting [1]) is 0.8 ± 0.2 µM; at mGlu4 (setting [3]) it was 0.42 µM; at mGlu8 (setting [1]), 4.4 ± 2 µM; on mGlu8 (setting [3]), 1 µM.
On to `COc1cc(CP(=O)(O)CC[C@H](N)C(=O)O)cc([N+](=O)[O-])c1O.N` [LSP3-2134, (3S)-3-[(((3-ammonium-3-carboxy)propyl)(hydroxy)phosphinyl)-methyl]4-hydroxy-5-methoxy-3-nitrobenzene], for which the “mGlu8/4 EC50 ratio” value at mGlu4 is given as 0.85. Also, the values for the EC50 on mGlu4 (setting [3]) and on mGlu8 (setting [3]) were 19.7 ± 10.5 µM and 16.6 ± 1.1 µM, respectively.
For the compound `N[C@@H](CCP(=O)(O)C(O)c1cccc(OCC(=O)O)c1)C(=O)O` (stereo partly shown) [LSP3-3099], the “mGlu8/4 EC50 ratio” value on mGlu4 was 9.4. In addition, the EC50 is 7.6 ± 2 µM on mGlu4 (setting [3]) and 71 ± 25 µM at mGlu8 (setting [3]).
As to `COc1cc(C(N)P(=O)(O)CC[C@H](N)C(=O)O)cc([N+](=O)[O-])c1O` (stereo partly drawn) [LSP4-1184, (2S)-amino-4-[[amino(4-hydroxy-5-methoxy-3-nitrophenyl)methyl](hydroxy)phosphoryl]butanoic acid], the EC50 at mGlu4 (setting [3]) worked out at 13 ± 3.9 µM; at mGlu8 (setting [3]), 33 ± 12 µM.
